Like-named read-outs stand apart in the source and are kept apart here. Where a SMILES comes first, the peptide text is derived from it. Bridges are numbered along the chain shown (N, C = ends). [ ]: non-standard residue; d: D form. R8 = C=CCCCCCC[C@@](C)(N)C(=O)O; hLeu = CC(C)CC[C@H](N)C(=O)O; S5 = C=CCCC[C@](C)(N)C(=O)O; Nle = CCCC[C@H](N)C(=O)O

These results are taken from US8927500B2, “Peptidomimetic macrocycles” (Aileron Therapeutics, Inc., priority 2012, dated 2015).

One test deals with MDM2 (Homo sapiens, UniProt Q00987). The test can be described thus: Competitive fluorescence polarization assay for MDM2. It is filed as binding. Particulars: competitive FP assay, MDM2. Background: In fluorescence polarisation assays a small probe gives low polarisation when free and higher when bound to something large.
MDM2, sequence (Q00987 1-125): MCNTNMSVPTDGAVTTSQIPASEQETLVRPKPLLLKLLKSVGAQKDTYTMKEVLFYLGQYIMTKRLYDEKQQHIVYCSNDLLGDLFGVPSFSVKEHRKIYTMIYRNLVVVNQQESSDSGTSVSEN
The target of the next test is T1, MDMX (Homo sapiens, UniProt O15151).
T1 sequence (O15151 1-125): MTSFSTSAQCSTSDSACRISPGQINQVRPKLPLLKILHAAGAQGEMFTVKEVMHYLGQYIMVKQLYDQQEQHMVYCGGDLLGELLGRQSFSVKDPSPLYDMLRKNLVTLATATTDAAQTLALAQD
The test can be described thus: Competitive fluorescence polarization assay for MDMX. It is filed as binding. Particulars: competitive FP assay.

Take `CCCC[C@H](NC(=O)[C@H](C)NC(=O)[C@H](C)NC(=O)[C@]1(C)CCCC=CCCCCCC[C@@](C)(NC(=O)[C@H](Cc2ccccc2)NC(=O)[C@@H](NC(=O)[C@H](CC(C)C)NC(=O)[C@H](C)NC(C)=O)[C@@H](C)O)C(=O)N[C@@H](CCC(=O)O)C(=O)N[C@@H](Cc2ccc(O)cc2)C(=O)N[C@@H](Cc2c[nH]c3ccccc23)C(=O)N[C@@H](C)C(=O)N[C@@H](CCC(N)=O)C(=O)N[C@@H](CCC(C)C)C(=O)N1)C(=O)N[C@@H](C)C(=O)N[C@@H](C)C(N)=O` [compound 382] (Ac-ALTF[R8]EYWAQ[hLeu][S5]AA[Nle]AA-NH2; staple 5-12): the 50% inhibitory concentration (IC50) at MDM2 (read-out: IC50 (MDM2)) and on MDMX (read-out: IC50 (MDMX)) was 10 to 100 nM throughout. Also, the inhibition constant (Ki) on MDM2 (read-out: Ki (MDM2)) and at MDMX (read-out: Ki (MDMX)) was < 10 nM in each case.

In the case of `CCCC[C@H](NC(=O)[C@H](C)NC(=O)[C@H](C)NC(=O)[C@]1(C)CCC/C=C/CCCCCC[C@@](C)(NC(=O)[C@H](Cc2ccccc2)NC(=O)[C@@H](NC(=O)[C@H](CC(C)C)NC(C)=O)[C@@H](C)O)C(=O)N[C@@H](C)C(=O)N[C@@H](Cc2ccc(O)cc2)C(=O)N[C@@](C)(Cc2c[nH]c3ccccc23)C(=O)N[C@@H](C)C(=O)N[C@@H](CCC(N)=O)C(=O)N[C@@H](CC(C)C)C(=O)N1)C(=O)N[C@@H](C)C(N)=O` [compound 388], the IC50 (commonly the concentration that inhibits the measured activity by half) at MDM2 (read-out: IC50 (MDM2)) is 100 to 1000 nM; at MDMX (read-out: IC50 (MDMX)), 10 to 100 nM. The inhibitory constant (Ki) (commonly the dissociation constant of the complex between target and ligand, obtained from inhibition or displacement) on MDM2 (read-out: Ki (MDM2)) is 10 to 100 nM; at MDMX (read-out: Ki (MDMX)) it was < 10 nM.

Consider `C=CCCCCCC[C@@](C)(NC(=O)[C@H](Cc1ccccc1)NC(=O)[C@@H](NC(=O)[C@H](CC(C)C)NC(C)=O)[C@@H](C)O)C(=O)N[C@@H](C)C(=O)N[C@@H](Cc1ccc(O)cc1)C(=O)N[C@@H](Cc1c[nH]c2ccccc12)C(=O)N[C@@H](C)C(=O)N[C@@H](CCC(N)=O)C(=O)N[C@@H](CC(C)C)C(=O)N[C@@](C)(CCCC=C)C(=O)N[C@@H](C)C(=O)N[C@@H](C)C(=O)N[C@@H](CCCC)C(=O)N[C@@H](C)C(N)=O` [compound 411], for which the half-maximal inhibitory concentration (IC50) is 100 to 1000 nM on MDM2 (read-out: IC50 (MDM2)) and > 1000 nM at MDMX (read-out: IC50 (MDMX)). For the same compound, the Ki on MDM2 (read-out: Ki (MDM2)) is 100 to 1000 nM; on MDMX (read-out: Ki (MDMX)) it was > 1000 nM.

Take `CCCC[C@H](NC(=O)[C@H](C)NC(=O)[C@H](C)NC(=O)C(C)(C)NC(=O)[C@H](CC(C)C)NC(=O)[C@H](CCC(N)=O)NC(=O)[C@H](C)NC(=O)[C@H](Cc1c[nH]c2ccccc12)NC(=O)[C@H](Cc1ccc(O)cc1)NC(=O)[C@H](C)NC(=O)C(C)(C)NC(=O)[C@H](Cc1ccccc1)NC(=O)[C@@H](NC(=O)[C@H](CC(C)C)NC(C)=O)[C@@H](C)O)C(=O)N[C@@H](C)C(N)=O` [compound 412]: the half-maximal inhibitory concentration (IC50) was < 10 nM on MDM2 (read-out: IC50 (MDM2)) and 10 to 100 nM on MDMX (read-out: IC50 (MDMX)). Moreover, the Ki on MDM2 (read-out: Ki (MDM2)) and on MDMX (read-out: Ki (MDMX)) was < 10 nM in each case.

As for `CC(=O)N[C@@H](CC(C)C)C(=O)N[C@H](C(=O)N[C@@H](Cc1ccccc1)C(=O)N[C@]1(C)CCCCCCCCCCC[C@@](C)(C(=O)N[C@@H](CO)C(=O)N[C@@H](C)C(=O)N[C@@H](C)C(N)=O)NC(=O)[C@H](CC2CCC2)NC(=O)[C@H](CCC(N)=O)NC(=O)[C@H](C)NC(=O)[C@H](Cc2c[nH]c3ccccc23)NC(=O)[C@H](Cc2ccc(O)cc2)NC(=O)[C@H](CCC(=O)O)NC1=O)[C@@H](C)O` [compound 434], the IC50 at MDM2 (read-out: IC50 (MDM2)) and at MDMX (read-out: IC50 (MDMX)) was 10 to 100 nM throughout. The Ki on MDM2 (read-out: Ki (MDM2)) was < 10 nM; on MDMX (read-out: Ki (MDMX)) it was 10 to 100 nM.

On to `CC(=O)N[C@@H](CC(C)C)C(=O)N[C@H](C(=O)N[C@@H](Cc1ccccc1)C(=O)N[C@]1(C)CCCCCCCCCCC[C@@](C)(C(=O)N[C@@H](C)C(=O)N[C@@H](C)C(=O)N[C@@H](C)C(=O)N[C@@H](C)C(=O)N[C@@H](C)C(=O)N[C@H](C)C(N)=O)NC(=O)[C@H](CC(C)C)NC(=O)[C@H](CCC(N)=O)NC(=O)[C@H](C)NC(=O)[C@H](Cc2c[nH]c3ccccc23)NC(=O)[C@H](Cc2ccc(O)cc2)NC(=O)[C@H](CCC(=O)O)NC1=O)[C@@H](C)O` [compound 445], for which the half-maximal inhibitory concentration (IC50) fell in the range of 10 to 100 nM at MDM2 (IC50 (MDM2)) and 100 to 1000 nM on MDMX (IC50 (MDMX)). The values for the Ki on MDM2 (Ki (MDM2)) and on MDMX (Ki (MDMX)) were < 10 nM and 10 to 100 nM, respectively.
